Assays:
Test in all cases: relative viability (nuclei count vs DMSO), 5 days (fraction); higher = more cells survive
AZ3146 + Dasatinib = compound: CN1CCC(CC1)OC2=CC(=C(C=C2)NC3=NC=C4C(=N3)N(C(=O)N4C)C5CCCC5)OC [AZ3146] + Cc1nc(Nc2ncc(C(=O)Nc3c(C)cccc3Cl)s2)cc(N2CCN(CCO)CC2)n1 [Dasatinib] (partner 0.075 µM)
Outline: (§1)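 Lung cancer cell lines in 1536-well plates were dosed by pin tool the day after seeding, either with one drug alone or with a fixed anchor-drug dose plus five library-drug doses (not always all listed) in √10 steps. After 5 days, cells were fixed and their nuclei stained in one step (final 0.05% Triton X-100, 1% formaldehyde, 1 ug/ml Hoechst), then counted on 4× images. Relative viability is the nuclei count in treated wells divided by that in vehicle wells. Values are medians of duplicate plates.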

GSK-J4 + Navitoclax = compound: CCOC(=O)CCNc1cc(N2CCc3ccccc3CC2)nc(-c2ccccn2)n1 [GSK-J4] + CC1(C)CCC(c2ccc(Cl)cc2)=C(CN2CCN(c3ccc(C(=O)NS(=O)(=O)c4ccc(N[C@H](CCN5CCOCC5)CSc5ccccc5)c(S(=O)(=O)C(F)(F)F)c4)cc3)CC2)C1 [Navitoclax] (partner 0.5 µM)
Outline: as §1

GSK-J4 + Lapatinib = compound: CCOC(=O)CCNc1cc(N2CCc3ccccc3CC2)nc(-c2ccccn2)n1 [GSK-J4] + CS(=O)(=O)CCNCc1ccc(-c2ccc3ncnc(Nc4ccc(OCc5cccc(F)c5)c(Cl)c4)c3c2)o1 [Lapatinib] (partner 2 µM)
Outline: as §1

AZ3146 + Luminespib = compound: CN1CCC(CC1)OC2=CC(=C(C=C2)NC3=NC=C4C(=N3)N(C(=O)N4C)C5CCCC5)OC [AZ3146] + CCNC(=O)c1noc(-c2cc(C(C)C)c(O)cc2O)c1-c1ccc(CN2CCOCC2)cc1 [Luminespib] (partner 0.01 µM)
Outline: as §1

CAL-12T
relative viability (AZ3146 + Dasatinib; first compound 0.08 µM): 0.453 | relative viability (AZ3146 + Dasatinib; first compound 0.253 µM): 0.517 | relative viability (AZ3146 + Dasatinib; first compound 0.8 µM): 0.369 | relative viability (AZ3146 + Dasatinib; first compound 2.53 µM): 0.377 | relative viability (AZ3146 + Dasatinib; first compound 8 µM): 0.192 | relative viability (GSK-J4 + Navitoclax; first compound 0.5 µM): 1.2 | relative viability (GSK-J4 + Navitoclax; first compound 1.581 µM): 1.17 | relative viability (GSK-J4 + Navitoclax; first compound 5 µM): 1.47 | relative viability (GSK-J4 + Navitoclax; first compound 15.81 µM): 1.16 | relative viability (GSK-J4 + Navitoclax; first compound 50 µM): 1.21 | relative viability (GSK-J4 + Lapatinib; first compound 0.5 µM): 0.586 | relative viability (GSK-J4 + Lapatinib; first compound 1.581 µM): 0.489 | relative viability (GSK-J4 + Lapatinib; first compound 5 µM): 0.778 | relative viability (GSK-J4 + Lapatinib; first compound 15.81 µM): 0.55 | relative viability (GSK-J4 + Lapatinib; first compound 50 µM): 0.391 | relative viability (AZ3146 + Luminespib; first compound 0.08 µM): 0.267 | relative viability (AZ3146 + Luminespib; first compound 0.253 µM): 0.573 | relative viability (AZ3146 + Luminespib; first compound 0.8 µM): 0.423 | relative viability (AZ3146 + Luminespib; first compound 2.53 µM): 0.556 | relative viability (AZ3146 + Luminespib; first compound 8 µM): 0.341

NCI-H2405
relative viability (AZ3146 + Dasatinib; first compound 0.08 µM): 0.166 | relative viability (AZ3146 + Dasatinib; first compound 0.253 µM): 0.187 | relative viability (AZ3146 + Dasatinib; first compound 0.8 µM): 0.191 | relative viability (AZ3146 + Dasatinib; first compound 2.53 µM): 0.212 | relative viability (AZ3146 + Dasatinib; first compound 8 µM): 0.185 | relative viability (GSK-J4 + Navitoclax; first compound 0.5 µM): 0.835 | relative viability (GSK-J4 + Navitoclax; first compound 1.581 µM): 0.848 | relative viability (GSK-J4 + Navitoclax; first compound 15.81 µM): 0.952 | relative viability (GSK-J4 + Navitoclax; first compound 50 µM): 0.928 | relative viability (GSK-J4 + Lapatinib; first compound 0.5 µM): 1.15 | relative viability (GSK-J4 + Lapatinib; first compound 1.581 µM): 1.03 | relative viability (GSK-J4 + Lapatinib; first compound 15.81 µM): 1.09 | relative viability (GSK-J4 + Lapatinib; first compound 50 µM): 1.17 | relative viability (AZ3146 + Luminespib; first compound 0.08 µM): 0.923 | relative viability (AZ3146 + Luminespib; first compound 0.253 µM): 0.704 | relative viability (AZ3146 + Luminespib; first compound 0.8 µM): 0.967 | relative viability (AZ3146 + Luminespib; first compound 2.53 µM): 0.756 | relative viability (AZ3146 + Luminespib; first compound 8 µM): 0.914

NCI-H1395
relative viability (AZ3146 + Dasatinib; first compound 0.08 µM): 0.415 | relative viability (AZ3146 + Dasatinib; first compound 0.253 µM): 0.381 | relative viability (AZ3146 + Dasatinib; first compound 0.8 µM): 0.327 | relative viability (AZ3146 + Dasatinib; first compound 2.53 µM): 0.42 | relative viability (AZ3146 + Dasatinib; first compound 8 µM): 0.398 | relative viability (GSK-J4 + Navitoclax; first compound 0.5 µM): 1.31 | relative viability (GSK-J4 + Navitoclax; first compound 1.581 µM): 1.08 | relative viability (GSK-J4 + Navitoclax; first compound 5 µM): 0.896 | relative viability (GSK-J4 + Navitoclax; first compound 15.81 µM): 1.05 | relative viability (GSK-J4 + Navitoclax; first compound 50 µM): 0.898 | relative viability (GSK-J4 + Lapatinib; first compound 0.5 µM): 1.22 | relative viability (GSK-J4 + Lapatinib; first compound 1.581 µM): 0.955 | relative viability (GSK-J4 + Lapatinib; first compound 5 µM): 0.759 | relative viability (GSK-J4 + Lapatinib; first compound 15.81 µM): 0.883 | relative viability (GSK-J4 + Lapatinib; first compound 50 µM): 0.648 | relative viability (AZ3146 + Luminespib; first compound 0.08 µM): 0.72 | relative viability (AZ3146 + Luminespib; first compound 0.253 µM): 0.691 | relative viability (AZ3146 + Luminespib; first compound 0.8 µM): 0.634 | relative viability (AZ3146 + Luminespib; first compound 2.53 µM): 0.772 | relative viability (AZ3146 + Luminespib; first compound 8 µM): 0.719

201T
relative viability (AZ3146 + Dasatinib; first compound 0.08 µM): 0.548 | relative viability (AZ3146 + Dasatinib; first compound 0.253 µM): 0.59 | relative viability (AZ3146 + Dasatinib; first compound 0.8 µM): 0.511 | relative viability (AZ3146 + Dasatinib; first compound 2.53 µM): 0.609 | relative viability (AZ3146 + Dasatinib; first compound 8 µM): 0.625 | relative viability (GSK-J4 + Navitoclax; first compound 0.5 µM): 1.19 | relative viability (GSK-J4 + Navitoclax; first compound 1.581 µM): 1.28 | relative viability (GSK-J4 + Navitoclax; first compound 5 µM): 1.25 | relative viability (GSK-J4 + Navitoclax; first compound 15.81 µM): 1.21 | relative viability (GSK-J4 + Navitoclax; first compound 50 µM): 1.16 | relative viability (GSK-J4 + Lapatinib; first compound 0.5 µM): 0.988 | relative viability (GSK-J4 + Lapatinib; first compound 1.581 µM): 1.08 | relative viability (GSK-J4 + Lapatinib; first compound 5 µM): 0.983 | relative viability (GSK-J4 + Lapatinib; first compound 15.81 µM): 1.04 | relative viability (GSK-J4 + Lapatinib; first compound 50 µM): 0.992 | relative viability (AZ3146 + Luminespib; first compound 0.08 µM): 0.994 | relative viability (AZ3146 + Luminespib; first compound 0.253 µM): 1.03 | relative viability (AZ3146 + Luminespib; first compound 0.8 µM): 0.979 | relative viability (AZ3146 + Luminespib; first compound 2.53 µM): 1.09 | relative viability (AZ3146 + Luminespib; first compound 8 µM): 1.04

NCI-H596
relative viability (AZ3146 + Dasatinib; first compound 0.08 µM): 0.56 | relative viability (AZ3146 + Dasatinib; first compound 0.253 µM): 0.582 | relative viability (AZ3146 + Dasatinib; first compound 0.8 µM): 0.581 | relative viability (AZ3146 + Dasatinib; first compound 2.53 µM): 0.636 | relative viability (AZ3146 + Dasatinib; first compound 8 µM): 0.538 | relative viability (GSK-J4 + Navitoclax; first compound 0.5 µM): 1.02 | relative viability (GSK-J4 + Navitoclax; first compound 1.581 µM): 0.955 | relative viability (GSK-J4 + Navitoclax; first compound 5 µM): 1.1 | relative viability (GSK-J4 + Navitoclax; first compound 15.81 µM): 0.846 | relative viability (GSK-J4 + Navitoclax; first compound 50 µM): 0.977 | relative viability (GSK-J4 + Lapatinib; first compound 0.5 µM): 1.01 | relative viability (GSK-J4 + Lapatinib; first compound 1.581 µM): 1.02 | relative viability (GSK-J4 + Lapatinib; first compound 5 µM): 1 | relative viability (GSK-J4 + Lapatinib; first compound 15.81 µM): 0.866 | relative viability (GSK-J4 + Lapatinib; first compound 50 µM): 0.916 | relative viability (AZ3146 + Luminespib; first compound 0.08 µM): 1.01 | relative viability (AZ3146 + Luminespib; first compound 0.253 µM): 0.995 | relative viability (AZ3146 + Luminespib; first compound 0.8 µM): 0.831 | relative viability (AZ3146 + Luminespib; first compound 2.53 µM): 1.03 | relative viability (AZ3146 + Luminespib; first compound 8 µM): 0.837

From the supplement of paper PMC10307832
